Values of other authors in patent publication US20110274751A1 (Sanovel Ilac Sanayi Ve Ticaret Anonim Sirketi, priority 2010, published 2011).
Where a name gives a salt, the structure may show the parent alone.

Legend:
[1] = in vivo

Structure (SMILES)	solubility in water (water)	solubility	half-life [1] [h]
COc1ccc(CN2CCNCC2)c(OC)c1OC [Trimetazidine dihydrochloride]	highly-soluble		
COc1ccc(CN2CCNCC2)c(OC)c1OC [Trimetazidine, 1-(2,3,4-trimethoxybenzyl)piperazine]		considerably high solubility	6
